Test results from the kinase profiling compilation of Christmann-Franck et al. (2016).

Tests used:
Test in all cases: KINOMEscan competition binding
Settings in all cases: compound 10.0 µM
[1] = molecular target: IRAK4 (human) (UniProt Q9NWZ3)
[2] = molecular target: TGFBR1 (human) (UniProt P36897)
[3] = molecular target: CDK9 (human) (UniProt P50750)
[4] = molecular target: NEK2 (human) (UniProt P51955)
[5] = molecular target: CAMK2B (human) (UniProt Q13554)
[6] = molecular target: ACVR2A (human) (UniProt P27037)
[7] = molecular target: PLK3 (human) (UniProt Q9H4B4)
[8] = molecular target: MAP3K13 (human) (UniProt O43283)
[9] = molecular target: CHEK2 (human) (UniProt O96017)
Sequence of CHEK2 (human) (O96017 whole entry, looked up): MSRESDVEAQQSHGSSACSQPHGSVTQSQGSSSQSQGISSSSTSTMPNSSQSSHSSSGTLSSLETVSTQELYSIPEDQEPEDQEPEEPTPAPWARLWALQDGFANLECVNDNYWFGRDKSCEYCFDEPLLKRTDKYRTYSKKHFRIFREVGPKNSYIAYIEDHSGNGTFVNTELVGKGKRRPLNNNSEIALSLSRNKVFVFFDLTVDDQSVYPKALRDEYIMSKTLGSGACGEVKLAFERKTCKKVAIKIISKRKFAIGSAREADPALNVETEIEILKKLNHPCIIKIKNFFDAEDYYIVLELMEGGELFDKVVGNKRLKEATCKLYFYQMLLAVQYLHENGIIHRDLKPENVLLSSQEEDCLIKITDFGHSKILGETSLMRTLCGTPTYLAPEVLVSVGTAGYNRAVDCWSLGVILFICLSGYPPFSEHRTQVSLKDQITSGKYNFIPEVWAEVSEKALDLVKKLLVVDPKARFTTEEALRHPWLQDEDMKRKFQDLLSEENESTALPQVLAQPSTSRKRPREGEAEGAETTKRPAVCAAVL

[10] = molecular target: PRKCD (human) (UniProt Q05655)
[11] = molecular target: FGR (human) (UniProt P09769)
Sequence of FGR (human) (P09769 whole entry, looked up): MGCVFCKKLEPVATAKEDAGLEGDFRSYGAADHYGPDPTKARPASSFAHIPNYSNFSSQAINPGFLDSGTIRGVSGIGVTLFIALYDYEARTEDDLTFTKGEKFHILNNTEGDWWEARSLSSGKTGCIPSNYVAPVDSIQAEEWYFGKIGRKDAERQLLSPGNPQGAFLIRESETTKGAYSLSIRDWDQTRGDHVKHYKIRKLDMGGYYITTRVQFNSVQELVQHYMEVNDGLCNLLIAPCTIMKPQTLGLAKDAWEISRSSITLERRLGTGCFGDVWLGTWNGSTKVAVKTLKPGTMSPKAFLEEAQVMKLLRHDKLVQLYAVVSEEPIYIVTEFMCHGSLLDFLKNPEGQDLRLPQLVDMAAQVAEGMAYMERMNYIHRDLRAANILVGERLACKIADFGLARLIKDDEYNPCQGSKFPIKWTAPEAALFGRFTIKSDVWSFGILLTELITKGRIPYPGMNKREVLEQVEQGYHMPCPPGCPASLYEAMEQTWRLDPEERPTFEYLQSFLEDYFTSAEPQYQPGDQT

[12] = molecular target: PDGFRB (human) (UniProt P09619)
[13] = molecular target: GSK3A (human) (UniProt P49840)
Sequence of GSK3A (human) (P49840 whole entry, looked up): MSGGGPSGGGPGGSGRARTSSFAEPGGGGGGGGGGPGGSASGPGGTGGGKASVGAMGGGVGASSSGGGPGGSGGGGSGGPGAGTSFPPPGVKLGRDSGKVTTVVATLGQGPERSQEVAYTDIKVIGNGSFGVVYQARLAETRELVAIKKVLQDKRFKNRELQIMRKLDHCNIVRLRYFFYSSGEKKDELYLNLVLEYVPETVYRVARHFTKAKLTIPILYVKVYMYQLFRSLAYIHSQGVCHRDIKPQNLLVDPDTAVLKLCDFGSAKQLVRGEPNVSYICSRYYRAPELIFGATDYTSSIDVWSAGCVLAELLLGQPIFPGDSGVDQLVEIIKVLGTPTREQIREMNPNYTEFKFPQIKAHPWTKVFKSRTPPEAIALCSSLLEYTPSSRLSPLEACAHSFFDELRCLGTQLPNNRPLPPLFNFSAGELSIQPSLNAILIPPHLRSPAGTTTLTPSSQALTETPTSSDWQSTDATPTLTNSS

[14] = molecular target: LTK (human) (UniProt P29376)
[15] = molecular target: PLK2 (human) (UniProt Q9NYY3)
[16] = molecular target: DSTYK (human) (UniProt Q6XUX3)
[17] = molecular target: FGFR2 (human) (UniProt P21802)
[18] = molecular target: CDC2L2 (human) (UniProt Q9UQ88)
[19] = molecular target: SIK2 (human) (UniProt Q9H0K1)
[20] = molecular target: LATS1 (human) (UniProt O95835)
Sequence of LATS1 (human) (O95835 whole entry, looked up): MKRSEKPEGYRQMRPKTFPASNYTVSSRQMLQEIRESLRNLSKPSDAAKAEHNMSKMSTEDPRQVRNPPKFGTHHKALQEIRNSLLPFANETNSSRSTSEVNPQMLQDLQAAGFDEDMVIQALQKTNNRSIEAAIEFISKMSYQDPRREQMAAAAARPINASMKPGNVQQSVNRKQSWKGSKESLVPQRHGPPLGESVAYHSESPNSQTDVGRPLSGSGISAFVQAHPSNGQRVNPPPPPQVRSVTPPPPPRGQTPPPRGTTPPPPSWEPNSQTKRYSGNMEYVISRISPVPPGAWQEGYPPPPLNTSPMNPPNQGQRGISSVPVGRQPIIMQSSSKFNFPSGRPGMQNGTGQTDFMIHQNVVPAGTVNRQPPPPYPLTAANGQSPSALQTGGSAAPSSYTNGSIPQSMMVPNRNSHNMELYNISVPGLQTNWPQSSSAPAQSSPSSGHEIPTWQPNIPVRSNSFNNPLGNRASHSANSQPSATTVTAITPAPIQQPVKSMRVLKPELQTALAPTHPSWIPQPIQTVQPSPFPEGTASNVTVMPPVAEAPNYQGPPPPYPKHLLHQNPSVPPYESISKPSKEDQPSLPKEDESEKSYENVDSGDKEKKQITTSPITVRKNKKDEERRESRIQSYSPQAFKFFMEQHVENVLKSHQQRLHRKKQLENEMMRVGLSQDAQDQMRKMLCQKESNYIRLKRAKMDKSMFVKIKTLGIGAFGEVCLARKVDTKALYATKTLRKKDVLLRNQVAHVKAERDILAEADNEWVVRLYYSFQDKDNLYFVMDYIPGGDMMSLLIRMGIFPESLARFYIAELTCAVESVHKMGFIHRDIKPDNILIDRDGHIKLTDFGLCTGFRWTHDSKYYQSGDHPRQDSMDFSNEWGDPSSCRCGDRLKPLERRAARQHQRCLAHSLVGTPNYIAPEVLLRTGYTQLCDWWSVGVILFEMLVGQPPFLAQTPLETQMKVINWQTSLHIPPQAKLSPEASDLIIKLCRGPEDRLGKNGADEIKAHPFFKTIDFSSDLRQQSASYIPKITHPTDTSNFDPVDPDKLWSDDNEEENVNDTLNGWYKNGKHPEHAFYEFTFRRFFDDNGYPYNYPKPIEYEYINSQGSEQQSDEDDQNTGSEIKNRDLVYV

[21] = molecular target: RIOK1 (human) (UniProt Q9BRS2)
[22] = molecular target: DDR1 (human) (UniProt Q08345)
[23] = molecular target: PIK3CA (human) (UniProt P42336)
[24] = molecular target: EPHA8 (human) (UniProt P29322)
[25] = molecular target: OXSR1 (human) (UniProt O95747)
Sequence of OXSR1 (human) (O95747 whole entry, looked up): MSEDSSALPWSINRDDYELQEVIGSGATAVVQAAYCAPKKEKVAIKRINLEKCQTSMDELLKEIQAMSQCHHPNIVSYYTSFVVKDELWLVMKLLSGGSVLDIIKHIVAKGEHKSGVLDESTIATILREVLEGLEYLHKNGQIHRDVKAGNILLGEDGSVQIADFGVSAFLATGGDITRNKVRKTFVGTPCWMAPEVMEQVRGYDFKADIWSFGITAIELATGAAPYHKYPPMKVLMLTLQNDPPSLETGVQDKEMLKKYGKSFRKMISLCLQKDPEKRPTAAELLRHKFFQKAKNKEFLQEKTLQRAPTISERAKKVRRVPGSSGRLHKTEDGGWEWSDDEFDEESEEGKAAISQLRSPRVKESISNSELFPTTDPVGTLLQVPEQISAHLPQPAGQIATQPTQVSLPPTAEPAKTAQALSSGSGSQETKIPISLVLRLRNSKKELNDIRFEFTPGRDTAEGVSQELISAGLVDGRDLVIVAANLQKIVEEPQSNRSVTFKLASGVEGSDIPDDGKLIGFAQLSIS

[26] = molecular target: PIP5K1A (human) (UniProt Q99755)
[27] = system: KIT (human), P10721 [V559D/V654A]
[28] = molecular target: MAK (human) (UniProt P20794)
[29] = molecular target: WEE2 (human) (UniProt P0C1S8)
[30] = molecular target: DYRK1B (human) (UniProt Q9Y463)
[31] = molecular target: MERTK (human) (UniProt Q12866)
[32] = molecular target: CLK4 (human) (UniProt Q9HAZ1)
[33] = molecular target: MAPK15 (human) (UniProt Q8TD08)
Sequence of MAPK15 (human) (Q8TD08 whole entry, looked up): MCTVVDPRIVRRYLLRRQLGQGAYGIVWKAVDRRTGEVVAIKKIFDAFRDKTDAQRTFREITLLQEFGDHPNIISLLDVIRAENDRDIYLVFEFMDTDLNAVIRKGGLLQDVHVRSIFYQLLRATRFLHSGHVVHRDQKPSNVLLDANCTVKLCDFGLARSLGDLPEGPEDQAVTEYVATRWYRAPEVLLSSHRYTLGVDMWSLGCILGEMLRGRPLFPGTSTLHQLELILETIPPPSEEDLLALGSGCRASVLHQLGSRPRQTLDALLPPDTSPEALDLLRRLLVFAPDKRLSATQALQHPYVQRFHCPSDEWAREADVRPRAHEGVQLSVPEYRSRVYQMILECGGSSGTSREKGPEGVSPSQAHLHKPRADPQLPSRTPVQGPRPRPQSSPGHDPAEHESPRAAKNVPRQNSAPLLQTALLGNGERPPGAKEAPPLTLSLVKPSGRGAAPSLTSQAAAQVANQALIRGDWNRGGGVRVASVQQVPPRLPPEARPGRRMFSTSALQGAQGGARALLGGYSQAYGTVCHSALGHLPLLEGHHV

[34] = molecular target: TYRO3 (human) (UniProt Q06418)
Sequence of TYRO3 (human) (Q06418 whole entry, looked up): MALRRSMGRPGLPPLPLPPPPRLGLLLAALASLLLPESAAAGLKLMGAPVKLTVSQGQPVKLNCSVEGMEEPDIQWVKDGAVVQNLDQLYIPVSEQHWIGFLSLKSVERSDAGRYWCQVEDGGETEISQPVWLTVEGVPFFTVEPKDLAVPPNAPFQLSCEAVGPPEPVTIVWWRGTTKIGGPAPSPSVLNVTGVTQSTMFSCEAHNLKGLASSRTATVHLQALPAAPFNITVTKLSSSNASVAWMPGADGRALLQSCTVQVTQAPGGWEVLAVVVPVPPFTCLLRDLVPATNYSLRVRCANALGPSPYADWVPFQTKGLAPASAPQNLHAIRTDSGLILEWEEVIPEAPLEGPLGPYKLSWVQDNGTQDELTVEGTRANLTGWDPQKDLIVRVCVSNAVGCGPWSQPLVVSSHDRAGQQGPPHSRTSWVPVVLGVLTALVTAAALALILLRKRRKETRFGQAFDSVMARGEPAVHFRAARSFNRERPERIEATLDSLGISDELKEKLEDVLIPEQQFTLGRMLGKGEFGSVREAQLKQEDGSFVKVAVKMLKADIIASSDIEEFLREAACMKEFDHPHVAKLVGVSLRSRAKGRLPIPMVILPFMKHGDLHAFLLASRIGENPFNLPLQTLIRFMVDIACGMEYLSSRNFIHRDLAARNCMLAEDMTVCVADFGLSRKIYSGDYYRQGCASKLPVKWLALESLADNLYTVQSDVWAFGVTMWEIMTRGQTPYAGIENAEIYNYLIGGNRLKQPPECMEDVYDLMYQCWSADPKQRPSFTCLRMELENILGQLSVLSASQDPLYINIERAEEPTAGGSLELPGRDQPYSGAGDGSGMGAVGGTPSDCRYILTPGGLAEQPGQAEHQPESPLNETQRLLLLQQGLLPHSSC

[35] = molecular target: AURKA (human) (UniProt O14965)
Sequence of AURKA (human) (O14965 whole entry, looked up): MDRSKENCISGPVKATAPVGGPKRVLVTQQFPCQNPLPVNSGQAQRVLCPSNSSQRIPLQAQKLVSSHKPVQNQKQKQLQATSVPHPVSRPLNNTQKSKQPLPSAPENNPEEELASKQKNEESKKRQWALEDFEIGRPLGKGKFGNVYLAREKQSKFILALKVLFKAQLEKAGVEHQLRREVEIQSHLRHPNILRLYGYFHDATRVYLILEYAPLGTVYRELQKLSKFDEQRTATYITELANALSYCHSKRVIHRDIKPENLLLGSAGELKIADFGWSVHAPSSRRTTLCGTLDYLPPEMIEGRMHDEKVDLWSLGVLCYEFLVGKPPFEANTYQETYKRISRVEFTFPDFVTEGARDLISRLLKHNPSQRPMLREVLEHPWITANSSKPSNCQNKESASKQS

[36] = molecular target: TNNI3K (human) (UniProt Q59H18)
[37] = molecular target: RAF1 (human) (UniProt P04049)
[38] = molecular target: MAP2K3 (human) (UniProt P46734)
[39] = molecular target: MAPK11 (human) (UniProt Q15759)
[40] = molecular target: ICK (human) (UniProt Q9UPZ9)

Compound	kinase still bound, per cent of control [1]	kinase still bound, per cent of control [2]	kinase still bound, per cent of control [3]	kinase still bound, per cent of control [4]	kinase still bound, per cent of control [5]	kinase still bound, per cent of control [6]	kinase still bound, per cent of control [7]	kinase still bound, per cent of control [8]	kinase still bound, per cent of control [9]	kinase still bound, per cent of control [10]	kinase still bound, per cent of control [11]	kinase still bound, per cent of control [12]	kinase still bound, per cent of control [13]	kinase still bound, per cent of control [14]	kinase still bound, per cent of control [15]	kinase still bound, per cent of control [16]	kinase still bound, per cent of control [17]	kinase still bound, per cent of control [18]	kinase still bound, per cent of control [19]	kinase still bound, per cent of control [20]	further results
COc1ccc(N(C(=O)Oc2c(C)cccc2C)c2ccnc(Nc3ccc(N4CCN(C)CC4)cc3)n2)c(OC)c1	100%	0.75%	33%	100%	98%	0.75%	100%	70%	78%	9.8%	0.15%	0%	100%	1.2%	100%	49%	0.45%	42%	7.6%	78%	kinase still bound, per cent of control [21]: 5.8%; kinase still bound, per cent of control [22]: 0.25%; kinase still bound, per cent of control [23]: 100%; kinase still bound, per cent of control [24]: 0.2%; kinase still bound, per cent of control [25]: 93%; kinase still bound, per cent of control [26]: 0.45%; kinase still bound, per cent of control [27]: 85%; kinase still bound, per cent of control [28]: 69%; kinase still bound, per cent of control [29]: 100%; kinase still bound, per cent of control [30]: 68%; kinase still bound, per cent of control [31]: 20%; kinase still bound, per cent of control [32]: 100%; kinase still bound, per cent of control [33]: 76%; kinase still bound, per cent of control [34]: 18%; kinase still bound, per cent of control [35]: 6.8%; kinase still bound, per cent of control [36]: 0%; kinase still bound, per cent of control [37]: 95%; kinase still bound, per cent of control [38]: 66%; kinase still bound, per cent of control [39]: 11%; kinase still bound, per cent of control [40]: 100%
O=C1NC(=O)/C(=C/c2ccc3nccc(-c4ccncc4)c3c2)S1	47%	20%	16%	64%	9.6%	83%	49%	82%	57%	20%	69%	55%	71%	22%	29%	61%	100%	85%	100%	80%	kinase still bound, per cent of control [21]: 1%; kinase still bound, per cent of control [22]: 62%; kinase still bound, per cent of control [23]: 0.05%; kinase still bound, per cent of control [24]: 90%; kinase still bound, per cent of control [25]: 87%; kinase still bound, per cent of control [26]: 48%; kinase still bound, per cent of control [27]: 100%; kinase still bound, per cent of control [28]: 100%; kinase still bound, per cent of control [29]: 95%; kinase still bound, per cent of control [30]: 1.2%; kinase still bound, per cent of control [31]: 14%; kinase still bound, per cent of control [32]: 0.2%; kinase still bound, per cent of control [33]: 0.05%; kinase still bound, per cent of control [34]: 100%; kinase still bound, per cent of control [35]: 69%; kinase still bound, per cent of control [36]: 79%; kinase still bound, per cent of control [37]: 47%; kinase still bound, per cent of control [38]: 35%; kinase still bound, per cent of control [39]: 86%; kinase still bound, per cent of control [40]: 46%
